In patent US10076511B2, “Bisamide derivative of dicarboxylic acid as an agent for stimulating tissue regeneration and recovery of diminished tissue function” (TREAMID GmbH, priority 2015, dated 2018):
Where “and” joins values, the source holds several entries; their conditions need not be identical. Equal values may be shown once. Marks after values point to notes of the source that are not given here.

Columns and labels:
Assay type in all cases: in vivo, rat
male rats = assay: Benign prostatic hyperplasia (BPH) model induced with Sulpiride, prostate weight and morphometry
Method: (§1) This is manifested in a decrease in the severity of the morphological changes typical in these diseases. CAP was simulated by suturing the ventral lobe of the gland with a silk thread, and BPH was simulated by the administration of Sulpiride. The reference drug was Prostamol Uno.
Animals with BPH received Teramide intragastrically for 2 months at a dose of 0.5 mg/kg.
(§2) Experiments were performed on 40 male Wistar rats (3 months of age). To simulate chronic abacterial prostatitis, the ventral lobe of the prostate was sutured with a silk thread (under anesthesia). The model of benign prostatic hyperplasia (BPH) was simulated in rats by inducing hyperprolactinaemia, for which male rats were intraperitoneally injected with Sulpiride at a dose of 40 mg/kg every day for 2 months (Eglonil, Sanofi Winthrop Industry, France).
The ability of Treamid to normalize the structure of the prostate gland was studied in the presence of administration of Sulpiride. For this purpose, Treamid was administered intragastrically for 2 months at a dose of 0.5 mg/kg simultaneously with Sulpirid. The control animals received a solvent (2% starch mucus) in an equivalent volume. The animals of the comparison group were injected intragastrically with a solution of Prostamol Uno at a dose of 50 mg/kg. At the end of the administration course, the animals were weighed and euthanized in a CO2 chamber. Sulpiride is known to cause the development of BPH in the lateral lobe of the gland in rats [Van Coppenolle Fabien, Christian Slomianny, Francoise Carpentier Effects of hyperprolactinemia on rat prostate growth: evidence of androgeno—dependence.//Physiol. Endocrinol. Metab.—2001.—P. 120-129]. In this regard, this lobe was dissected. Its weight, weight coefficient, and volume were determined. Further, it was subjected to a morphological analysis. The lateral lobe of the prostate gland was fixed in 10% formalin and poured into paraffin, followed by preparation of sections of a thickness of 5 μm. Deparaffined sections of the gland were stained with hematoxylin and eosin. On the histological sections, the presence of proliferative centers and daughter acini were determined per standard section area. In addition, the area of the epithelial and stromal structures was measured on the standard area of a histological section. These parameters were determined by using a computer graphic analysis on the standard area of a histological section (micrographs of 10 serial visual fields performed by an AxioCam Erc5s camera mounted on an AxioLab A1 microscope (×10 lens, ×10 eyepiece), with an image transfer software of “AxioVision LE”, Carl Zeisis). The stromal-epithelial ratio was defined as a ratio of the area of stroma to the area of epithelium.
The effectiveness of the test compound was estimated by the following criteria: lower intensity of morphological symptoms of benign prostatic hyperplasia:—a decrease in the number of proliferation centers and daughter acini, and a decrease in the area of the epithelium.

male Wistar rats [1] = assay: Sperm motility in hypogonadotropic hypogonadism simulated with Synestrol; settings: Synestrol 50 U/kg/day, Treamid 0.5 mg/kg or Tribestan 70 mg/kg intraperitoneally Day 31-45
Method: Hypogonadotropic hypogonadism was simulated by the administration of Synestrol. Estrogens are able to inhibit the secretion of LH (Luteinizing hormone) and FSH (follicle stimulating hormone). An increase in the concentration of estrogens in a male body is accompanied by an increase in the content of sex-steroid-binding globulins, which leads to a decrease in the concentration of free testosterone and to the appearance of asthenospermia.
Experiments were performed on 36 male Wistar rats (3 months of age). For 30 days after the beginning of the experiment, all male rats (except for the background group) were intramuscularly injected with Synestrol at a dose of 50 U/kg/day. Further, from Day 31 to Day 45 of the experiment, the animals of the experimental group, in addition to Synestrol, were intraperitoneally administered Treamid at dose of 0.5 mg/kg or reference drug Tribestan at a dose of 70 mg/kg. The effectiveness of Treamid was estimated by the number of motile sperm forms (percentage of motile sperm forms) isolated from the epididymis. The results of the studies were compared with those for the administration of Synestrol (control) and reference drug Tribestan.

male Wistar rats [2] = assay: Chronic abacterial prostatitis (CAP) model, prostate weight and morphometry
Method: as §1
Treamid were administered intragastrically to animals with CAP at a dose of 0.5 mg/kg for 15 days.
as §2
One month after the surgery, the animals of the experimental group were intraperitoneally administered Treamid at a dose of 0.5 mg/kg once daily for 15 days. At the end of the administration course, the animals were weighed and euthanized in a CO2 chamber. The ventral lobe of the gland was then dissected, weighed, and its volume was measured, followed by the calculation of a weight coefficient, and subjected to morphological analysis. For this purpose, the prostate was fixed in formalin and poured into paraffin. Paraffin sections of a thickness of 5 μm were stained with hematoxylin-eosin according to Van Gieson on the connective tissue, to calculate the relative area of the epithelium. Further, the severity of atrophic processes and developing sclerosis was qualitatively assessed. The assessment was carried out on standard area of the gland section by using a computer graphic analysis (micrographs of 10 serial visual fields performed by an AxioCam Erc5s camera mounted on an AxioLab A1 microscope (×10 lens, ×10 eyepiece), with an image transfer software of “AxioVision LE”, Carl Zeiss). The area occupied by secretory sites, collagen fibers of connective tissue septa was determined. The effectiveness of the drug was estimated by the following criteria: lower intensity of morphological symptoms of chronic abacterial prostatitis (atrophy and sclerosis): the area occupied by secretory sections, collagen fibers of connective tissue septa.

[3] = Treamid 0.5 mg/kg 2 months, Prostamol Uno 50 mg/kg
[4] = Treamid 0.5 mg/kg 15 days, Prostamol Uno 50 mg/kg
[5] = anterior part of the prostate gland, Treamid 0.5 mg/kg, Prostamol Uno 50 mg/kg

For `O=C(CCCC(=O)NCCc1ncc[nH]1)NCCc1ncc[nH]1` [Treamid], the “Volume of the lateral lobe of the prostate gland, cm^3” value (male rats; [3]) was 0.62 ± 0.14# cm^3, the “Weight coefficient of the lateral lobe of the prostate gland” value (male rats; [3]) was 0.69 ± 0.12 mg/g and the “Weight of the lateral lobe of the prostate gland” value (male rats; [3]) was 381.67 ± 70.30 mg. For the same molecule, the “Relative area (%) of the acinar epithelium on the standard area of a section of the lateral lobe” value (male rats; group M ± m) was 13.89 ± 2.08 %, the “Relative area (%) of the stroma on the standard area of a section of the lateral lobe” value (male rats; group M ± m) was 45.66 ± 2.30 % and the “The number of daugter proliferative centers (abs.)” value (male rats; group M ± m) was 1.60 ± 0.60 abs. The “The number of structures (abs.) consisting of 2-3 glandules tightly adjacent to each other” value (male rats; group M ± m) was 1.60 ± 0.81 abs, the “Relative area (%) of the acinar epithelium on the standard area of a section of the lateral lobe” value (male rats; individual animals) was 10.26% and 14.09% and 16.30% and 20.19% and 8.61% and the “Relative area (%) of the stroma on the standard area of a section of the lateral lobe” value (male rats; individual animals) was 48.61% and 45.59% and 44.14% and 38.12% and 51.82%. The “The number of daugter proliferative centers (abs.)” value (male rats; individual animals) was 3 abs. (2×) and 1 abs. (2×) and 0 abs, the “The number of structures (abs.) consisting of 2-3 glandules tightly adjacent to each other” value (male rats; individual animals) was 1 abs. and 3 abs. and 4 abs. and 0 abs. (2×) and the “The number of motile sperm cells (%)” value (male Wistar rats [1]; group X ± m) was 69.06 ± 2.98#*⋄ %. For the same molecule, the “The number of motile sperm cells (%)” value (male Wistar rats [1]; individual animals) was 67.04% and 56.84% and 78.65% and 59.09% and 72.63% and 66.67% and 66.99% and 85.55% and 68.08%, the “increase in the area of the acinar epithelium” value (male Wistar rats [2]; Treamid 0.5 mg/kg) was 22% and the “Volume of the anterior lobe of the prostate gland, cm^3” value (male Wistar rats [2]; [4]) was 0.90 ± 0.20 cm^3. The “Weight coefficient of the anterior lobe of the prostate gland” value (male Wistar rats [2]; [4]) was 1.97 ± 0.47 mg/g, the “Weight of the anterior lobe of the prostate gland” value (male Wistar rats [2]; [4]) was 976.00 ± 226.62 mg and the “Area of collagen fibers” value (male Wistar rats [2]; [5]) was 2.64 ± 0.12 %. For the same molecule, the “Area of the acinar epithelium” value (male Wistar rats [2]; [5]) was 26.33 ± 2.63%.
